“And” between values parts separate entries of the source, which are not always exact repeats. Identical values can stand only once. The source made the active and inactive calls. No stated cut-off is given here; in the data, active means AC50 below about 11 µM. Peptide text beside a SMILES is read from it. * marks the point of attachment. Cbz = O=C(OCc1ccccc1)*

The test system of the assay is B cell line, TNFa signaling counterscreen reporter. The assay can be described thus: TNFa pathway inhibition counter-screen, B-lineage cells – dose response (AID 1259334).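 Further: cells stimulated with TNFa after compound preincubation.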
Take `CCC(C)(O)C(=O)OC1C(=O)OC2CC3C(C)=CC(=O)C(O)C3(C)C3C4(O)OCC23C1C(C)C4O` (stereo not given): the AC50 is 22.8 nM.

Consider `COc1ccc(C[C@H]2NC[C@H](O)[C@H]2OC(C)=O)cc1`, for which the AC50 is 14.4 nM.

Regarding `CCCNC(=O)c1cc2c(c(-c3cccc(-c4cc5ccccc5o4)c3)n1)[C@H](CCO)N(C(=O)NC(C)C)C2`, the AC50 was > 20000 nM (inactive).

Consider `O=C1C=CC2C3C(=O)N(c4ccccc4)C(=O)C3C1N2Cc1ccccc1` (stereo not given), for which the AC50 was 1520 nM.

For the compound `CCCCCN1C=CC(=C2C(=O)c3ccccc3C2=O)C=C1`, the AC50 was 316 nM.

Take `CC(C)CC#Cc1ccc([C@@H]2[C@H]3CN(C(=O)Nc4ccccc4)CCCCN3[C@H]2CO)cc1`: the AC50 is 6520 nM.

Take `CC(=O)OCC12CC(OC(=O)CC(C)C)C(C)=CC1OC1C(O)C(OC(C)=O)C2(C)C12CO2` (stereo not given): the concentration at half-maximal activity (AC50) is 3.46 nM.

Turning to `Cc1noc(C)c1S(=O)(=O)Nc1ccc2c(c1)CC(=O)N([C@@H](C)CO)C[C@@H](C)[C@@H](CN(C)Cc1ccc(Oc3ccccc3)cc1)O2`, the AC50 is 7010 nM.

`COc1ccc(CC2C(=O)NC(C)C(=O)N(C)C3Cc4ccc(cc4)Oc4cc(ccc4O)CC(C(=O)NC(C)C(=O)NC(C)C(=O)N2C)N(C)C3=O)cc1` (stereo not given): the AC50 is 4.64 nM.

As to `Cc1ccc(S(=O)(=O)N[C@@H](Cc2ccccc2)C(=O)CCl)cc1`, the AC50 was 1200 nM.

Turning to `CCN1/C(=C/c2sc(-c3ccccc3C)c[n+]2C)Sc2ccccc21`, the AC50 is 574 nM.

As to `C[C@@H]1CN([C@@H](C)CO)C(=O)c2c(c3ccccc3n2C)-c2ccccc2CO[C@H]1CN(C)C(=O)Nc1cccc(C(F)(F)F)c1`, the AC50 is 10900 nM.

Consider `Cc1cccc(-c2ccc(C3[C@@H]4CN(C(=O)Nc5ccc(C(F)(F)F)cc5)C[C@H]3N4)cc2)c1` (stereo not given in full), for which the AC50 is > 20000 nM (inactive).

As to `CCCNC(=O)N1[C@@H](C#N)[C@H](c2ccc(-c3cccc(OC)c3)cc2)[C@@H]1CO`, the AC50 is > 20000 nM (inactive).

For `O=C(O)c1ccc(Nc2nc3c(s2)CCCC3)cc1`, the concentration at half-maximal activity (AC50) is 5300 nM.

Regarding `N#C[C@H]1[C@H](c2ccc(-c3cccc(F)c3)cc2)[C@H](CO)N1C(=O)NC1CCCC1`, the AC50 is > 20000 nM (inactive).

`C[C@@H]1CN([C@@H](C)CO)C(=O)Cc2cc(NS(=O)(=O)c3ccc(F)cc3)ccc2O[C@H]1CN(C)Cc1ccc(C(F)(F)F)cc1`: the AC50 was 5360 nM.

In the case of `CC(C)[C@H](N)C(=O)N[C@H]1CCC2C3CC=C4C[C@@H](O)CC[C@]4(C)C3CC[C@@]21C` (stereo not given in full), the AC50 is 1960 nM.

For the compound `Cc1c(C(=O)c2cccc3ccccc23)c2cccc3c2n1[C@H](CN1CCOCC1)CO3`, the half-maximal activity concentration (AC50) was 10200 nM.

On to `CC(=O)O[C@H]1C[C@H](O[C@H]2[C@@H](O)C[C@H](O[C@H]3[C@@H](O)C[C@H](O[C@H]4CC[C@@]5(C)C(CCC6C5C[C@@H](O)[C@]5(C)[C@@H](C7=CC(=O)OC7)CC[C@]65O)C4)O[C@@H]3C)O[C@@H]2C)O[C@H](C)[C@H]1O[C@@H]1O[C@H](CO)[C@@H](O)[C@H](O)[C@H]1O` (stereo not given in full), for which the AC50 was 1010 nM.

`CC(C)[C@H](CO)Nc1nc(Nc2cccc(Cl)c2)c2ncn(C(C)C)c2n1`: the AC50 was 3580 nM.

In the case of `COc1ccc(/C=C2/CCC(CN3CCOCC3)C2=O)cc1` (stereo not given), the AC50 is 2690 nM.

As to `CC12CCC3C(CCC4(O)CC(O)CCC34C=O)C1(O)CCC2C1=CC(=O)OC1` (stereo not given), the AC50 is 3750 nM.

`CC(C)C[C@@H](C=O)NC(=O)[C@H](CC(C)C)NC(=O)[C@H](CC(C)C)NC(=O)OCc1ccccc1` (Cbz-Leu-Leu-Leu-aldehyde): the AC50 was 3820 nM.

On to `C[C@H](CO)N1C[C@H](C)[C@H](CN(C)S(=O)(=O)c2ccc(Cl)cc2)Oc2c(NC(=O)Nc3ccc(F)cc3)cccc2C1=O`, for which the AC50 is 4980 nM.

For the compound `CC(=O)OC(C)(C)/C=C/C(=O)C(C)(O)C1C(O)CC2(C)C3CC=C4C(CC(O)C(=O)C4(C)C)C3(C)C(=O)CC12C` (stereo not given), the AC50 was 29 nM.

With `O=C(COC(=O)c1ccccc1C(=O)c1ccc(Cl)c([N+](=O)[O-])c1)NC1CC1`, the AC50 is 1470 nM.

With `CCc1csc(N2[C@H](C#N)[C@H](c3ccc(C#Cc4ccc(F)cc4)cc3)[C@H]2CO)n1`, the AC50 was > 20000 nM (inactive).

In the case of `O=C(c1ccc(Nc2nccc(-c3cc4ccccc4s3)n2)cc1)N1CCC(N2CCCC2)CC1`, the AC50 is 150 nM and 715 nM.

With `CCC(=O)NC(c1ccccc1OC)c1ccc2cccnc2c1O` (stereo not given), the concentration at half-maximal activity (AC50) is 9460 nM.

Consider `NC(c1ccccc1)c1csc(NC(=O)Nc2cccc(C(F)(F)F)c2)n1` (stereo not given), for which the AC50 was 3070 nM.

Take `CC1CC(C)(O)CC(C(O)CC2CC(=O)NC(=O)C2)C1=O` (stereo not given): the AC50 is 89.9 nM.

`CC1=C(SCCO)C(=O)c2ccccc2C1=O`: the concentration at half-maximal activity (AC50) was 2220 nM.

In the case of `COC(=O)C1=C(C(=O)OC)C(C(=O)OC)C(C(=O)OC)C(C(=O)OC)(C(=O)OC)C(C(=O)OC)=C1C(=O)OC` (stereo not given), the AC50 was 4620 nM.

Turning to `CC1OC(CC(=O)O)CC2=C1C(=O)c1c(O)cccc1C2=O` (stereo not given), the AC50 was 86.9 nM.

Consider `CC(C)(C)[S@](=O)N1Cc2cc(C(=O)NCC(F)(F)F)nc(-c3cccc(-c4cccc(F)c4)c3)c2[C@@H]1CCO`, for which the AC50 is > 20000 nM (inactive).

As for `CCN(CC)C(=O)c1ccc(NC(=O)Nc2ccccc2F)cc1`, the AC50 is 1860 nM.

For the compound `C[C@@H]1CN([C@@H](C)CO)C(=O)c2c(c3ccccc3n2C)-c2ccccc2CO[C@@H]1CN(C)Cc1ccccc1C(F)(F)F`, the AC50 is > 20000 nM (inactive).

On to `Cc1cnc(NC(=O)c2ccc(OCC3CCCO3)cc2)s1` (stereo not given), for which the AC50 is 4020 nM.

As to `C[C@@H]1O[C@@H](O[C@H]2C[C@@H](O)[C@]3(CO)C4C(CC[C@]3(O)C2)[C@@]2(O)CC[C@H](C3=CC(=O)OC3)[C@@]2(C)C[C@H]4O)[C@H](O)[C@H](O)[C@H]1O` (stereo not given in full), the AC50 was 138 nM.

On to `O=C(/C=C/c1cccs1)c1ccc(N2CCOCC2)cc1`, for which the concentration at half-maximal activity (AC50) is 3870 nM.

Turning to `C[C@@H]1CN([C@H](C)CO)C(=O)c2cc(NS(=O)(=O)c3cccs3)ccc2O[C@@H](C)CCCCO[C@H]1CN(C)Cc1ccc(Cl)c(Cl)c1`, the AC50 is > 20000 nM (inactive).

With `COC1=CC(=O)c2c(ccc3ncnc(N)c23)C1=O`, the AC50 is 980 nM.

As for `COc1ccc(C(=O)O/N=C2\C(=O)N(C)c3ccccc32)cc1`, the AC50 is 7390 nM.

Consider `O=C(C#Cc1ccccc1)c1ccccc1`, for which the AC50 is 5680 nM.

With `CC1OC(OC2CC(O)C3(CO)C4C(O)CC5(C)C(C6=CC(=O)OC6)CCC5(O)C4CCC3(O)C2)C(O)C(O)C1O` (stereo not given), the AC50 was 109 nM.

As for `Cn1cc(C2=C(c3cn(CCCSC(=N)N)c4ccccc34)C(=O)NC2=O)c2ccccc21`, the AC50 was 305 nM.

Consider `O=C1NC2c3c(I)sc(I)c3C(=O)C2O1` (stereo not given), for which the AC50 is 3870 nM.

`c1ccc2nc(-c3nc4ccccc4o3)ccc2c1`: the AC50 was 6020 nM.

For the compound `CC[C@H]1CN2CCc3cc(OC)c(OC)cc3C2C[C@@H]1CC1NCCc2cc(OC)c(OC)cc21` (stereo not given in full), the AC50 is 11 nM.

As for `Oc1cc2c(cc1C(c1ccc(Br)cc1)N1CCCC1)OCO2` (stereo not given), the AC50 is 6970 nM.

`C=CC[n+]1c(/C=C2\C=Cc3cc(C)ccc3N2CC)ccc2ccccc21`: the AC50 is 951 nM.

For `c1ccc2c(c1)OCC(C1=NCCN1)O2` (stereo not given), the AC50 was > 20000 nM (inactive).

In the case of `C[C@H](CO)N1C[C@H](C)[C@@H](CN(C)Cc2cccc(C(F)(F)F)c2)OCc2ccccc2-c2c(n(C)c3ccccc23)C1=O`, the AC50 is 8030 nM.

On to `CC1CC(C)CC(C)C(O)C(C#N)=CC=CCC(C2CCCC2C(=O)O)OC(=O)CC(O)C(C)C1` (stereo not given), for which the AC50 is under 0.5 nM.

As a reminder, the AC50 is the concentration giving half of the maximal activity seen.

(Values after PubChem BioAssay AID1259334 (Broad Institute, 2017).)
